# Like-named read-outs stand apart in the source and are kept apart here.
# Key:
# hr BSEP = hr BSEP (Homo sapiens, UniProt O95342); assay: receptor profile (Table S4), second BSEP line; settings: hr BSEP, second line
# BSEP = BSEP (Homo sapiens, UniProt O95342); assay: receptor profile (Table S4), second BSEP line; settings: human
# in vitro AMES = assay type: cell-based
# in vivo = settings: male, Sprague-Dawley, rat
# hr ACES = hr ACES (Homo sapiens, UniProt P22303); assay: receptor profile (Table S4); assay type: biochemical
# hr H3 = hr H3 (Homo sapiens, UniProt Q9Y5N1); assay: receptor profile (Table S4); assay type: binding
# hr 5-HT2B antag = hr 5-HT2B antag (Homo sapiens, UniProt P41595); assay: receptor profile (Table S4); assay type: biochemical
# hr D2 = hr D2 (Homo sapiens, UniProt P14416); assay: receptor profile (Table S4); assay type: binding
# hr 5-HT2A antag = hr 5-HT2A antag (Homo sapiens, UniProt P28223); assay: receptor profile (Table S4); assay type: biochemical
# [1] = test system: T. brucei bloodstream form overexpressing PSMB5 Y113F; assay: growth inhibition of T. brucei overexpressing PSMB5 Y113F; assay type: cell-based
# Description: Generation of T. brucei strains ectopically expressing proteasome β4 and β5 subunit variants
# All the T. brucei proteasome mutants were generated by following protocols described earlier (Khare et
# assembly technology (NEBuilder high fidelity DNA assembly cloning kit). The sense (5′-
# Y113F gene was generated from the wild-type PSMB5 construct by site-directed mutagenesis using
# mutagenic sense (5′- [sequence]tcgta[sequence]-3′), antisense (5′-
# [sequence]-3′) primers and QuikChange II Site-Directed Mutagenesis Kit
# (Stratagene). The sequences of the wild-type and mutant PSMB5 genes were verified by sequencing and
# both gene versions were cloned into the T. brucei expression vector pHD1034 under control of a
# ribosomal RNA promoter. Transfected T. brucei Lister 427 cells were selected in medium supplemented
# with puromycin at 1 μg/ml. Susceptibility of transfected T. brucei cell lines to compounds was assessed
# after 2 days of compound treatment. Parasite viability was determined with CellTiter-Glo. All assays were
# carried out in three biological replicates. Reported EC50 values for T. brucei parasites ectopically
# expressing PSMB5 proteins were calculated from three technical replicates.
# inhibition of T. brucei bloodstream form constitutively overexpressing wild -type PSMB5 or PSMBY113F
# CYP2D15 = CYP2D15 (Canis lupus familiaris, UniProt Q29473); settings: panel of dog recombinant CYP enzymes; 1 µM, 30 min
# hr M3 = hr M3 (Homo sapiens, UniProt P20309); assay: receptor profile (Table S4); assay type: binding
# [2] = Balb/C mice, 20 mg/kg PO; dose-normalized
# Protocol: In Vivo PK Studies in Mice.
# The solution was filtered using a 0.45 m syringe filter before dosing. Two male Balb/c mice were administered 1 intravenously via the lateral tail
# vein at 5 mg/kg with a dose volume of 2.0 mL/kg. 1 was also formulated in a suspension of 0.5%
# methylcellulose with 0.5% Tween 80 (0.5% MC/0.5% Tw80) in water at 2.5 mg/mL. A group of mice
# (n=3) were administered 1 orally via gavage at 20 mg/kg with a dose volume of 8.0 mL/kg.
# The mouse blood samples were centrifuged to separate plasma and the plasma samples were frozen at -
# In Vivo PK Studies in Rats.
# Two male Wistar rats were administered
# 1 intravenously via the lateral tail vein at 3 mg/kg with a dose volume of 1.0 mL/kg. 1 was also formulated
# in a suspension of 0.5% methylcellulose with 0.5% Tween 80 (0.5% MC/0.5% Tw80) in water at 2.0
# mg/mL. The second group of rats (n=3) were administered 1 orally via gavage at 10 mg/kg in suspension
# with a dose volume of 5.0 mL/kg. Six blood samples of 100 μL each were collected serially from each
# animal via the saphenous vein up to 24 hours after dosing. The rat blood samples were centrifuged to
# separate plasma and the plasma samples were frozen at -20°C until analysis.
# In Vivo PK Studies in Dogs.
# The solution was filtered using a 0.45 m syringe filter before dosing. Three male Beagle dogs were administered 1 intravenously via saphenous
# vein at 0.3 mg/kg with a dose volume of 0.1 mL/kg. 1 was also formulated in a suspension of 0.5%
# methylcellulose with 0.5% Tween 80 (0.5%MC/0.5% Tween 80) in water at 1.0 mg/mL. The second
# group of male dogs (n=2) were administered 1- orally via gavage at 1.0 mg/kg with a dose volume of 1.0
# mL/kg. Seven blood samples of 250 µL each were collected serially from each animal via the jugular vein
# The dog blood samples were centrifuged to separate plasma and the plasma
# samples were frozen at -20 °C until analysis.
# hr D3 = hr D3 (Homo sapiens, UniProt P35462); assay: receptor profile (Table S4); assay type: binding
# hr OpM = hr OpM (Homo sapiens, UniProt P35372); assay: receptor profile (Table S4); assay type: binding
# hr TP ag = biological target: T1, hr TP ag (Homo sapiens, UniProt P21731); assay: receptor profile (Table S4); assay type: biochemical
# T1 sequence (P21731 1-343): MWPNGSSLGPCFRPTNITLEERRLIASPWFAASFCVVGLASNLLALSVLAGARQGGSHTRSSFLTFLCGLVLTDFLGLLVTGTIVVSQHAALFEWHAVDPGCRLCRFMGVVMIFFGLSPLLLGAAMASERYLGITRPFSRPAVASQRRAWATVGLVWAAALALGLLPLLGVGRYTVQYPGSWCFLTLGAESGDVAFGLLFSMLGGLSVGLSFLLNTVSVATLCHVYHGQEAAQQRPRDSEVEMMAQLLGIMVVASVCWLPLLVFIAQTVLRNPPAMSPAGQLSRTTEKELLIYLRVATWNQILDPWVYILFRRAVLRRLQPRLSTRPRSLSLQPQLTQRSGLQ
# hERG = hERG (Homo sapiens, UniProt Q12809); assay: hERG manual patch clamp assay; settings: read-out: hERG channel IC50
# hr M2 antag = biological target: T2, hr M2 antag (Homo sapiens, UniProt P08172); assay: receptor profile (Table S4); assay type: biochemical
# T2 sequence (P08172 1-466): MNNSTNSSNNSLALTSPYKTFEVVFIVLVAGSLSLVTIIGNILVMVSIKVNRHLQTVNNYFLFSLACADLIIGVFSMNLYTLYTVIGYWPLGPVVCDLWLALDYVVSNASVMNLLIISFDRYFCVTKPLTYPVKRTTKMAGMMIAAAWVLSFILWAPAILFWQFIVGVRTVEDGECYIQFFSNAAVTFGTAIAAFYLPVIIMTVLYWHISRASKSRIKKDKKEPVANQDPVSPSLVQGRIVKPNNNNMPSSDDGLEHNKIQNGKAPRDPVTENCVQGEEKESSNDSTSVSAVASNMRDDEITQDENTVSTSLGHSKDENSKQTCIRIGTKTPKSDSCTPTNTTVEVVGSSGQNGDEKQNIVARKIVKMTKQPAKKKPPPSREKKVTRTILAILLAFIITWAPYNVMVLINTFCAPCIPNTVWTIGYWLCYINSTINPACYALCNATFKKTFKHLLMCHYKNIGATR
# hr PDE4D = hr PDE4D (Homo sapiens, UniProt Q08499); assay: receptor profile (Table S4); assay type: biochemical
# [3] = male beagle dog, 1.0 mg/kg PO, dose-normalized
# Chain of hr D3 (P35462 whole entry): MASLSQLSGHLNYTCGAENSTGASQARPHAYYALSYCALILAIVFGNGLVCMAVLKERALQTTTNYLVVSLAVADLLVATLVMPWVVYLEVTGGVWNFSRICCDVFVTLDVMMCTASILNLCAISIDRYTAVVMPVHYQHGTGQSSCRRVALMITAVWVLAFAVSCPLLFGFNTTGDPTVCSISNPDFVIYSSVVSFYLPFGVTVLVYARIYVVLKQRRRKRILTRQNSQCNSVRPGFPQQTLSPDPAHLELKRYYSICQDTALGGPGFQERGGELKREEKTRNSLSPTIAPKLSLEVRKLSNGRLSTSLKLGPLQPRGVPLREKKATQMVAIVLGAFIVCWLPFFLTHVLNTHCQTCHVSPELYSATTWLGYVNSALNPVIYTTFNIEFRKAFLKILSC
# Chain of hr PDE4D (Q08499 whole entry): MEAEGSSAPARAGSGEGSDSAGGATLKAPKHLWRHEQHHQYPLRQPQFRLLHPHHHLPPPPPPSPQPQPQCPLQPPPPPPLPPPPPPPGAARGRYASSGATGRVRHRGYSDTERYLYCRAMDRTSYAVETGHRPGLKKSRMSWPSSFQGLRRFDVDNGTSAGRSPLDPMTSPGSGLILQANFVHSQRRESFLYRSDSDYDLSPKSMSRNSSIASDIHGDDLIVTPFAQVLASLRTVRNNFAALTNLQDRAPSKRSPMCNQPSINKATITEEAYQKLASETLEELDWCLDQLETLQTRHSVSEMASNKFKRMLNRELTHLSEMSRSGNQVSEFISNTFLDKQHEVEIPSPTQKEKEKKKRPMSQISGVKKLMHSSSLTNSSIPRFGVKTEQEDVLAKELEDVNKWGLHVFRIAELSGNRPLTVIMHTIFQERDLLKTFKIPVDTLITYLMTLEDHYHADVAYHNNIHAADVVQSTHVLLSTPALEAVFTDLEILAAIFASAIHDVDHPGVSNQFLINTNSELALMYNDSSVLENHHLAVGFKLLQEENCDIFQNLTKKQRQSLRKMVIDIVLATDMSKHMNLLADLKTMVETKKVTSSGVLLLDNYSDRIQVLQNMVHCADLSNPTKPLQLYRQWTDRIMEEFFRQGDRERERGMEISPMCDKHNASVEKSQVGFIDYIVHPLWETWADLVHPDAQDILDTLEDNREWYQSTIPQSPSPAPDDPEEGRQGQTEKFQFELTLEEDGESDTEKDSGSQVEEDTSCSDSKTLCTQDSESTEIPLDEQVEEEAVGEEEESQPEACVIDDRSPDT
# Chain of hr M3 (P20309 whole entry): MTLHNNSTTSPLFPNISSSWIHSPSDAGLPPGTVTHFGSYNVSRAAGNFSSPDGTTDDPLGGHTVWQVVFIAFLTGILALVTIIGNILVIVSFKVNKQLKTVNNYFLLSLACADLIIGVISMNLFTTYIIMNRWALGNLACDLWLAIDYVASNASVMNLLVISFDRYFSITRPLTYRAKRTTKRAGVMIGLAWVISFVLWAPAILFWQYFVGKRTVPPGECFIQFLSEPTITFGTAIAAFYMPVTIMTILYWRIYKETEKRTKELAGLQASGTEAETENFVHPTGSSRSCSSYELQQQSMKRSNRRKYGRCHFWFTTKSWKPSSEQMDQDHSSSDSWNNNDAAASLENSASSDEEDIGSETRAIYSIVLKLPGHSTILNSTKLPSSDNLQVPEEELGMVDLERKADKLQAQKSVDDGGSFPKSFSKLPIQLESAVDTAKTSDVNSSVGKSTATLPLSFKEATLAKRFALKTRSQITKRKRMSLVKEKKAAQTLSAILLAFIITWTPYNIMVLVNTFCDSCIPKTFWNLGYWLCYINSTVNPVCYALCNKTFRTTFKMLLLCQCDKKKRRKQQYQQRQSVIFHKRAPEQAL
# Chain of hr H3 (Q9Y5N1 whole entry): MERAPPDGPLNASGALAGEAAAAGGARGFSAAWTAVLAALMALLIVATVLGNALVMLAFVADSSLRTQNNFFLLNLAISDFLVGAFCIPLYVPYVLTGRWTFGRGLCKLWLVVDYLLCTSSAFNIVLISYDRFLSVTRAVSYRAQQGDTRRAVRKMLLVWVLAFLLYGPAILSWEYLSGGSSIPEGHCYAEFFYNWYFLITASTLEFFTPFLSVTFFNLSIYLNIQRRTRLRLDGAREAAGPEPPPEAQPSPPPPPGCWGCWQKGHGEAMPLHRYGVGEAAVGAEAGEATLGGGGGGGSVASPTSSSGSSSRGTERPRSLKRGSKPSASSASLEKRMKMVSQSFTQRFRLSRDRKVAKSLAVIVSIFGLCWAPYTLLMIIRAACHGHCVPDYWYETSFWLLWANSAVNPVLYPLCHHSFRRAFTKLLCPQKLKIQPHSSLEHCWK
# Chain of hr 5-HT2B antag (P41595 whole entry): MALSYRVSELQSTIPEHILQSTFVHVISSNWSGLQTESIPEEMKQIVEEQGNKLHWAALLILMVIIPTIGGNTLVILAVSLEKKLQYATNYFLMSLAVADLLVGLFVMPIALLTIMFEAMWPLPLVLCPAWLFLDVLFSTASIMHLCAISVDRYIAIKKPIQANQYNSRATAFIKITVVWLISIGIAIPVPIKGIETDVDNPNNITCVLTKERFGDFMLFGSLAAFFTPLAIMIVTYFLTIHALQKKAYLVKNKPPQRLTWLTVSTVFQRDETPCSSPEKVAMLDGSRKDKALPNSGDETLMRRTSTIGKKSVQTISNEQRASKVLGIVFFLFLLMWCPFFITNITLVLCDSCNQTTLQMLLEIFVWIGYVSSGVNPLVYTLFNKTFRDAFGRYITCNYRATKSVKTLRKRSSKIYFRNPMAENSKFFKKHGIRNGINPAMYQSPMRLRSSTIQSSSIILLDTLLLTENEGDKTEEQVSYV
# Chain of hr OpM (P35372 whole entry): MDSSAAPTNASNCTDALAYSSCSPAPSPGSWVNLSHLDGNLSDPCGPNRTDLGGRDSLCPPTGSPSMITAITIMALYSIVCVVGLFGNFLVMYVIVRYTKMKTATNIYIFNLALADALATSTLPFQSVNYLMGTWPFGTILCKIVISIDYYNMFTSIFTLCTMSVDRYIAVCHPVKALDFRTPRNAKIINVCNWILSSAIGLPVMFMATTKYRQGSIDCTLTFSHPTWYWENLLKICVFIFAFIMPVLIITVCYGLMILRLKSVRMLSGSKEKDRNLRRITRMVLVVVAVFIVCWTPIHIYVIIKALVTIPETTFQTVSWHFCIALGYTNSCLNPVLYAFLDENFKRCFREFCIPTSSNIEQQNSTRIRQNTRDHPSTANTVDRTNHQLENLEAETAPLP
# Chain of hr D2 (P14416 whole entry): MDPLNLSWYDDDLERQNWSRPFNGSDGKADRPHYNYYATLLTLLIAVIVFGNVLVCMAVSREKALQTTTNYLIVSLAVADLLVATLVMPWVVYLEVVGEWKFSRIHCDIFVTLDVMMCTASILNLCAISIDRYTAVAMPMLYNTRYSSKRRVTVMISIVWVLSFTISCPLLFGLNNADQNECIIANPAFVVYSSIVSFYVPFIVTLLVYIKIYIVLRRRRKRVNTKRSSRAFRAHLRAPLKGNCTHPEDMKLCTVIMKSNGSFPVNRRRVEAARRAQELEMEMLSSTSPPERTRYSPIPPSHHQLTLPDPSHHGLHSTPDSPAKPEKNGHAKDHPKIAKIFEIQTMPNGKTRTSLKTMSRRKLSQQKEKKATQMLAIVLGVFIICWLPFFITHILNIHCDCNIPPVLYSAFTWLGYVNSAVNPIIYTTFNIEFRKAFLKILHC
# Chain of BSEP (O95342 whole entry): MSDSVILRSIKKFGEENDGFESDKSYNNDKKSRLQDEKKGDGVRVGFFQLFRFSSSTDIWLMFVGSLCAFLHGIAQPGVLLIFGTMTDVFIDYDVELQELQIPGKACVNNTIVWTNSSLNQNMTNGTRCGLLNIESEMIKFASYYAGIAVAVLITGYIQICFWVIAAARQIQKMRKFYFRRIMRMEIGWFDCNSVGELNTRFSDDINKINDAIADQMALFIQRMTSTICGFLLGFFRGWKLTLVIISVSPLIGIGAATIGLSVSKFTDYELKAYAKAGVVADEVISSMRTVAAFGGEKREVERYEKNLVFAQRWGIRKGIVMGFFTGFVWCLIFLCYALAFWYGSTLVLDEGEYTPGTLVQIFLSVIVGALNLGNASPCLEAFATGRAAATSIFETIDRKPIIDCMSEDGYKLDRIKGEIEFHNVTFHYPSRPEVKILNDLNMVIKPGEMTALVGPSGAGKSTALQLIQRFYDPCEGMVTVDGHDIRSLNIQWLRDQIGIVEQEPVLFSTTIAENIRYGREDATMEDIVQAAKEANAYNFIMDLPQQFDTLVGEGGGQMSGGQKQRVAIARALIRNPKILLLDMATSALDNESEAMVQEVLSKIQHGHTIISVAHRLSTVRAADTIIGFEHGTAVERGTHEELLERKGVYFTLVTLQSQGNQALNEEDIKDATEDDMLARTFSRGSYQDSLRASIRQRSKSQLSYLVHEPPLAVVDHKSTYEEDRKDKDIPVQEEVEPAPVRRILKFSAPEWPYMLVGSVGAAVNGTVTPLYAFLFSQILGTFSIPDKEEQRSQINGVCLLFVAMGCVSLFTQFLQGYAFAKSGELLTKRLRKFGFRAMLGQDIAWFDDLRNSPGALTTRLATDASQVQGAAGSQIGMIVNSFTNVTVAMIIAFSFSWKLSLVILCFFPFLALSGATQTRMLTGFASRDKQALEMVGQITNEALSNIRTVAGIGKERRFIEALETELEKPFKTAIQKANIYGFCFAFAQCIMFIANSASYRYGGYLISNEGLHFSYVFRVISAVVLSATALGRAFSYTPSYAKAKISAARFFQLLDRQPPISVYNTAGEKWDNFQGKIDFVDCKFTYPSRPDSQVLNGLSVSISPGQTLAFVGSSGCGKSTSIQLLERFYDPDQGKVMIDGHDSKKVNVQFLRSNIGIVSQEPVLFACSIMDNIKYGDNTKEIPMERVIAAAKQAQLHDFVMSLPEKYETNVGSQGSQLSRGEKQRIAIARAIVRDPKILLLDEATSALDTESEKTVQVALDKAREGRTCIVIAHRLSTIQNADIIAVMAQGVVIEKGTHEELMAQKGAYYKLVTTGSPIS
# Chain of hr BSEP (O95342 whole entry): as above
structure (smiles),measurement,setting,value
"Cc1nc(C)c(C(=O)Nc2ccc(F)c(-c3nc4ncc(-c5ncccc5C)cn4n3)c2)o1 [compound 1, N-(4-Fluoro-3-(6-(3-methylpyridin-2-yl)-[1,2,4]triazolo[1,5-a]pyrimidin-2-yl)phenyl)-2,4-dimethyloxazole-5-carboxamide]",EC50/IC50,hr BSEP,17 µM
same,inhibition at 10 µM,BSEP,40%
same,inhibition at 30 µM,BSEP,56%
same,"AMES, risk of mutagenicity",in vitro AMES,did not indicate a risk
same,clearance,"in vivo; in vivo, iv, 3 mg/kg",2.1 mL/min/kg
same,MRT,"in vivo; plasma, iv, 3 mg/kg",4.3 h
same,Vd,"in vivo; plasma, iv, 3 mg/kg",0.53 L/kg
same,half-life,"in vivo; plasma, iv, 3 mg/kg",3.8 h
same,bioavailability,"in vivo; plasma, po, 10 mg/kg",67%
same,% inh/act @ 10 µM,h PDE3,6%
same,% inh/act @ 30 µM,h PDE3,4%
same,EC50/IC50,hr ACES; hr ACES,> 30 µM
same,inhibition at 10 µM,hr ACES; read-out: % inh/act @ 10 µM,16%
same,EC50/IC50,hr H3; hr H3,> 30 µM
same,inhibition at 10 µM,hr H3; read-out: % inh/act @ 10 µM,9%
same,inhibition at 30 µM,hr H3; read-out: % inh/act @ 30 µM,14%
same,CL as % of hepatic blood flow,"dog, IV, fumarate salt",37 % of hepatic blood flow
same,DN AUC PO,[3],1.5 µM·h
same,DN Cmax PO,[3],300 nM
same,EC50/IC50,hr 5-HT2B antag; hr 5-HT2B antag,> 30 µM
same,inhibition at 10 µM,hr 5-HT2B antag; read-out: % inh/act @ 10 µM,22%
same,inhibition at 30 µM,hr 5-HT2B antag; read-out: % inh/act @ 30 µM,24%
same,EC50/IC50,hr D2; hr D2,> 30 µM
same,inhibition at 10 µM,hr D2; read-out: % inh/act @ 10 µM,7%
same,inhibition at 30 µM,hr D2; read-out: % inh/act @ 30 µM,15%
same,EC50/IC50,hr 5-HT2A antag; hr 5-HT2A antag,> 10 µM
same,inhibition at 10 µM,hr 5-HT2A antag; read-out: % inh/act @ 10 µM,34%
same,effect of β5 Y113F mutation of T. brucei proteasome on activity,"[1]; T. brucei, β5 Y113F",loss of activity
same,EC50,"[1]; Trypanosoma brucei, 48 h, read-out: EC50, T. brucei growth",3.3 µM
same,metabolism by dog recombinant CYP enzymes,CYP2D15,metabolized to 8 predominantly by CYP2D15
same,EC50/IC50,hr M3; hr M3,> 30 µM
same,inhibition at 10 µM,hr M3; read-out: % inh/act @ 10 µM,17%
same,inhibition at 30 µM,hr M3; read-out: % inh/act @ 30 µM,25%
same,DN AUC PO,[2],7.5 µM·h
same,DN Cmax PO,[2],800 nM
same,EC50/IC50,hr D3; hr D3,> 30 µM
same,inhibition at 10 µM,hr D3; read-out: % inh/act @ 10 µM,9%
same,inhibition at 30 µM,hr D3; read-out: % inh/act @ 30 µM,7%
same,EC50/IC50,hr OpM; hr OpM,> 30 µM
same,inhibition at 10 µM,hr OpM; read-out: % inh/act @ 10 µM,18%
same,inhibition at 30 µM,hr OpM; read-out: % inh/act @ 30 µM,19%
same,EC50/IC50,hr TP ag; hr TP ag,> 30 µM
same,inhibition at 10 µM,hr TP ag; read-out: % inh/act @ 10 µM,-5%
same,inhibition at 30 µM,hr TP ag; read-out: % inh/act @ 30 µM,-2%
same,IC50,hERG,> 30 µM
same,EC50/IC50,hr M2 antag; hr M2 antag,> 30 µM
same,inhibition at 10 µM,hr M2 antag; read-out: % inh/act @ 10 µM,16%
same,inhibition at 30 µM,hr M2 antag; read-out: % inh/act @ 30 µM,31%
same,EC50/IC50,hr PDE4D; hr PDE4D,> 30 µM
same,inhibition at 10 µM,hr PDE4D; read-out: % inh/act @ 10 µM,35%
same,inhibition at 30 µM,hr PDE4D; read-out: % inh/act @ 30 µM,49%

# Source: paper PMC7549094 (Journal of Medicinal Chemistry, 2020)
